Assays:
VIM-2 = VIM-2 (Escherichia coli, UniProt Q5U7L7); experiment: MBL inhibition, FC-5 fluorescence assay, VIM-2; type: biochemical; settings: FC-5 cephalosporin substrate, ranges of obtained pIC50, read-out: pIC50 VIM-2 (converted)
Protocol: (§1) Inhibitors were tested using a panel of the clinically relevant B1 MBLs (NDM-1, VIM-1, -2 and IMP-1). Activities were assayed by monitoring the release of a fluorophore following the enzymatic breakdown of the cephalosporin FC-5 (https://pubs.acs.org/doi/abs/10.1021/jm400769b). FC-5 assays were conducted in clear bottomed 384 black well microplates (Greiner); the initial rate of reaction was assessed by monitoring the fluorescence intensity (λex=380 nm and λem=460 nm) using a Pherstar FS (BMG LabTech) plate reader. Initial rates of reaction were determined and dose-response analyses conducted in GraphPad Prism. Dose-response curves were fitted using the log(inhibitor) vs normalized response—variable slope model of GraphPad Prism 12. Each concentration point for routine screening was conducted with 4 intra-plate replicates.

Escherichia coli NDM-7 = experiment: Antibiotic susceptibility testing (MIC), EC NDM-7; type: cell-based; settings: agar or broth dilution (CLSI/EUCAST)
Protocol: (§2) Antibiotic susceptibility testing was performed using the agar or broth dilution method, in line with the Clinical and Laboratory Standards Institute (CLSI) and European Committee on Antimicrobial Susceptibility Testing (EUCAST) requirements.

Escherichia coli NDM-1 = experiment: Antibiotic susceptibility testing (MIC), EC NDM-1; type: cell-based; settings: agar or broth dilution (CLSI/EUCAST)
Protocol: as §2

VIM-1 = VIM-1 (Pseudomonas aeruginosa, UniProt A0A0F7KYQ8); experiment: MBL inhibition, FC-5 fluorescence assay, VIM-1; type: biochemical; settings: FC-5 cephalosporin substrate, ranges of obtained pIC50, read-out: pIC50 VIM-1 (converted)
Protocol: as §1

NDM-1 = NDM-1 (Klebsiella pneumoniae, UniProt C7C422); experiment: MBL inhibition, FC-5 fluorescence assay, NDM-1; type: biochemical; settings: FC-5 cephalosporin substrate, fluorescence; ranges of obtained pIC50; read-out: pIC50 NDM-1 (converted)
Protocol: as §1

IMP-1 = IMP-1 (Serratia marcescens, UniProt P52699); experiment: MBL inhibition, FC-5 fluorescence assay, IMP-1; type: biochemical; settings: FC-5 cephalosporin substrate, fluorescence; ranges of obtained pIC50; read-out: pIC50 IMP-1 (converted)
Protocol: as §1

[1] = tested on: Acinetobacter baumannii NDM-1; experiment: Antibiotic susceptibility testing (MIC), AB NDM-1; type: cell-based; settings: agar or broth dilution (CLSI/EUCAST)
Protocol: as §2

[2] = Plasma protein binding, equilibrium dialysis, human plasma; type: in vitro ADME; settings: pH 7.4, equilibrium dialysis (RED) 4 hours at 37° C., read-out: Plasma protein binding, fu, Human
Protocol: The fraction of unbound compound (fu) in plasma from human or other animal species was determined by equilibrium dialysis at 37° C. for 4 hours using the Rapid Equilibrium Dialysis (RED) device (ThermoFisher Scientific). The test compound at a concentration of 10 μM was added to plasma and dialyzed against isotonic phosphate buffer (67 mM, pH 7.4) over 4 hours at 37° C. After dialysis, compound concentrations in buffer and plasma were quantified by LC-MS/MS. In parallel the stability of the compound in plasma was determined by incubating drug-spiked plasma (10 μM) at 37° C. for 4 hours, meanwhile the control plasma sample was kept in the freezer. The concentration of the compound in both samples was quantified by LC-MS/MS (Waters Corp, Milford, MA, USA).

Sequence of NDM-1 (C7C422 29-270, looked up, species assumed): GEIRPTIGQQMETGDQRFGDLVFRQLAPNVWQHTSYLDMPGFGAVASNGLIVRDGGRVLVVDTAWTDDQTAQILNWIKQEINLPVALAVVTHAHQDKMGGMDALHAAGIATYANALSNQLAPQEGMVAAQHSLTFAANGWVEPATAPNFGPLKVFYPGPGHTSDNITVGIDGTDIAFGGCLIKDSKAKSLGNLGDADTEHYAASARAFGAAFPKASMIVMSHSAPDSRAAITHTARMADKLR
Sequence of IMP-1 (P52699 19-246, looked up, species assumed): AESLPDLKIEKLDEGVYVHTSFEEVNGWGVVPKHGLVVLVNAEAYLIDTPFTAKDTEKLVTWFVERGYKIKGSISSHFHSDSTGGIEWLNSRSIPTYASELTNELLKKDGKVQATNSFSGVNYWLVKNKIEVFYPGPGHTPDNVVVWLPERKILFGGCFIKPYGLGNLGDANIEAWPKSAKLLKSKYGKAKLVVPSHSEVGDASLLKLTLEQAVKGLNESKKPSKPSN

SMILES	IC50 (VIM-2)	MIC values EC NDM-7 (Escherichia coli NDM-7)	MIC values EC NDM-1 (Escherichia coli NDM-1)	IC50 (VIM-1)	IC50 (NDM-1)	IC50 (IMP-1)	MIC values AB NDM-1 [1]	fraction unbound at 4 h, 10 μM [2]
COc1cc(-c2c(C(=O)O)[nH]c3c([C@H](C)N4C[C@]5(C[C@@H](CN)C5)OC4=O)cccc23)cnc1O [IC-25, 7-((S)-1-((2S,4r)-2-(aminomethyl)-6-oxo-5-oxa-7-azaspiro[3.4]octan-7-yl)ethyl)-3-(6-hydroxy-5-methoxypyridin-3-yl)-1H-indole-2-carboxylic acid]	0.1 to 1 nM	B (B MIC values 2 ÷ 8)	C (C = MIC values > 8)	> 10 nM	> 10 nM	> 10 nM	C (C = MIC values > 8)	> 0.25
C[C@@H](c1cccc2c(-c3c[nH]c(=O)c(F)c3)c(C(=O)O)[nH]c12)N1C[C@]2(C[C@@H](CN)C2)OC1=O [IC-26, 7-((1S)-1-(2-(aminomethyl)-6-oxo-5-oxa-7-azaspiro[3.4]octan-7-yl)ethyl)-3-(5-fluoro-6-oxo-1,6-dihydropyridin-3-yl)-1H-indole-2-carboxylic acid]	0.1 to 1 nM	A (A = MIC values ≤ 1)	B (B MIC values 2 ÷ 8)	> 10 nM	1 to 10 nM	> 10 nM	C (C = MIC values > 8)	0.05 to 0.25
COc1ncc(-c2c(C(=O)O)[nH]c3c([C@H](C)N4C[C@]5(C[C@@H](CN)C5)OC4=O)cccc23)cc1O [IC-27, (S)-7-(1-(2-(aminomethyl)-6-oxo-5-oxa-7-azaspiro[3.4]octan-7-yl)ethyl)-3-(5-hydroxy-6-methoxypyridin-3-yl)-1H-indole-2-carboxylic acid]	< 0.1 nM	A (A = MIC values ≤ 1)	B (B MIC values 2 ÷ 8)	1 to 10 nM	0.1 to 1 nM	> 10 nM	B (B MIC values 2 ÷ 8)	0.05 to 0.25
C[C@@H](c1cccc2c(-c3cnn(C)c(=O)c3)c(C(=O)O)[nH]c12)N1C[C@]2(C[C@@H](CN)C2)OC1=O [IC-28, 7-((S)-1-((2S,4r)-2-(aminomethyl)-6-oxo-5-oxa-7-azaspiro[3.4]octan-7-yl)ethyl)-3-(1-methyl-6-oxo-1,6-dihydropyridazin-4-yl)-1H-indole-2-carboxylic acid]	0.1 to 1 nM	A (A = MIC values ≤ 1)	B (B MIC values 2 ÷ 8)	1 to 10 nM	1 to 10 nM	> 10 nM	C (C = MIC values > 8)	0.05 to 0.25
C[C@@H](c1cccc2c(-c3cnc(O)c(O)c3)c(C(=O)O)[nH]c12)N1C[C@]2(C[C@@H](CN)C2)OC1=O [IC-29, 7-((S)-1-((2S,4r)-2-(aminomethyl)-6-oxo-5-oxa-7-azaspiro[3.4]octan-7-yl)ethyl)-3-(5,6-dihydroxypyridin-3-yl)-1H-indole-2-carboxylic acid]	1 to 10 nM	A (A = MIC values ≤ 1)	B (B MIC values 2 ÷ 8)	> 10 nM	> 10 nM	> 10 nM	C (C = MIC values > 8)	0.005 to 0.05
C[C@@H](c1cccc2c(-c3ccn(C)c(=O)c3)c(C(=O)O)[nH]c12)N1C[C@]2(C[C@@H](CN)C2)OC1=O [IC-32, 3-(1-methyl-2-oxo-1,2-dihydropyridin-4-yl)-7-[(1S)-1-[(2r,4r)-2-(aminomethyl)-6-oxo-5-oxa-7-azaspiro[3.4]octan-7-yl]ethyl]-1H-indole-2-carboxylic acid]	0.1 to 1 nM	A (A = MIC values ≤ 1)	B (B MIC values 2 ÷ 8)	1 to 10 nM	0.1 to 1 nM	> 10 nM	B (B MIC values 2 ÷ 8)	> 0.25
C[C@@H](c1cccc2c(-c3cn[nH]c(=O)c3)c(C(=O)O)[nH]c12)N1C[C@]2(C[C@@H](CN)C2)OC1=O [IC-33, 3-(6-oxo-1,6-dihydropyridazin-4-yl)-7-[(1S)-1-[(2r,4r)-2-(aminomethyl)-6-oxo-5-oxa-7-azaspiro[3.4]octan-7-yl]ethyl]-1H-indole-2-carboxylic acid]	0.1 to 1 nM	A (A = MIC values ≤ 1)	A (A = MIC values ≤ 1)	1 to 10 nM	1 to 10 nM	> 10 nM	B (B MIC values 2 ÷ 8)	0.05 to 0.25
C[C@@H](c1cccc2c(-c3ccc(CS(C)(=N)=O)c(F)c3)c(C(=O)O)[nH]c12)n1cc(CN2CC(N)C2)oc1=O (stereo partly drawn) [IC-53, 7-[(1S)-1-{5-[(3-aminoazetidin-1-yl)methyl]-2-oxo-2,3-dihydro-1,3-oxazol-3-yl}ethyl]-3-(3-fluoro-4-{[imino(methyl)oxo-λ^6-sulfanyl]methyl}phenyl)-1H-indole-2-carboxylic acid]	1 to 10 nM	A (A = MIC values ≤ 1)	A (A = MIC values ≤ 1)	1 to 10 nM	< 0.1 nM	> 10 nM	B (B MIC values 2 ÷ 8)	–
C[C@@H](c1cccc2c(-c3ccc(CS(C)(=O)=O)c(F)c3)c(C(=O)O)[nH]c12)N1CC2(CNC2)OC1=O [IC-65, (S)-3-(3-fluoro-4-((methylsulfonyl)methyl)phenyl)-7-(1-(6-oxo-5-oxa-2,7-diazaspiro[3.4]octan-7-yl)ethyl)-1H-indole-2-carboxylic acid]	0.1 to 1 nM	A (A = MIC values ≤ 1)	A (A = MIC values ≤ 1)	1 to 10 nM	0.1 to 1 nM	> 10 nM	B (B MIC values 2 ÷ 8)	–
C/C(=C\C(=O)NCCc1c[nH]cn1)c1cccc2c(-c3ccc(CS(C)(=O)=O)c(F)c3)c(C(=O)O)[nH]c12 [IC-103, 3-[3-Fluoro-4-(methanesulfonylmethyl)phenyl]-7-[(1E)-1-{[2-(1H-imidazol-4-yl)ethyl]carbamoyl}prop-1-en-2-yl]-1H-indole-2-carboxylic acid]	> 10 nM	C (C = MIC values > 8)	C (C = MIC values > 8)	> 10 nM	> 10 nM	> 10 nM	C (C = MIC values > 8)	–
C/C(=C\C(=O)N1CCOCC1)c1cccc2c(-c3ccc(CS(C)(=O)=O)c(F)c3)c(C(=O)O)[nH]c12 [IC-105, 3-[3-Fluoro-4-(methanesulfonylmethyl)phenyl]-7-[(2E)-4-(morpholin-4-yl)-4-oxobut-2-en-2-yl]-1H-indole-2-carboxylic acid]	> 10 nM	C (C = MIC values > 8)	C (C = MIC values > 8)	> 10 nM	> 10 nM	> 10 nM	C (C = MIC values > 8)	–
C=C(CC(=O)NCCc1c[nH]cn1)c1cccc2c(-c3ccc(CS(C)(=O)=O)c(F)c3)c(C(=O)O)[nH]c12 [IC-106, 7-(4-((2-(1H-Imidazol-4(5)-yl)ethyl)amino)-4-oxobut-1-en-2-yl)-3-(3-fluoro-4-((methylsulfonyl)-methyl)phenyl)-1H-indole-2-carboxylic acid]	> 10 nM	C (C = MIC values > 8)	C (C = MIC values > 8)	> 10 nM	> 10 nM	> 10 nM	C (C = MIC values > 8)	–

— patent publication US20240246913A1, “2-CARBOXYL-INDOLE INHIBITORS OF METALLO-BETA-LACTAMASES” (Oxford University Innovation Limited, priority 2021, published 2024)
